Laboratory results: patent US9957274B2, “Indane inhibitors of EED and methods of their use” (AbbVie Inc., priority 2016, dated 2018)
Where two headings read alike, the source gives them in different places.

Experiments:
H3K27me3 in G401 cells = experiment: H3K27me3 AlphaLISA assay in G401 cells; format: cell-based; conditions: Homo sapiens, G-401, 144 h, 6 days with compound
Protocol: G401 cells (ATCC catalog # CRL-1441) were maintained in McCoy's 5a medium (ATCC) supplemented with 10% heat-inactivated FBS (HyClone) at 37° C. in a humidified CO2 incubator. OCILY19 cells (DSMZ catalog #ACC 528) were maintained in IMDM (Invitrogen) supplemented with 10% human serum (Sigma) at 37° C. in a humidified CO2 incubator. 5,000 cells were plated into each well of 96-well Corning CellBing cell culture plates and incubated overnight at 37° C. in a humidified CO2 incubator. […] The cell culture plates were then incubated for 6 more days. H3K27me3 AlphaLISA assay was performed on the cell culture samples by using AlphaLISAR® H3K27me3 Cellular Detection Kit (PerkinElmer) and 96-well white half-area plates (PerkinElmer).

[1] = tested on: H3K27me3 in OCILY19 cells; experiment: H3K27me3 AlphaLISA assay in OCILY19 cells; format: cell-based; conditions: Homo sapiens, OCI-LY19, 144 h, 6 days with compound, read-out: OCILY-19 IC50
Protocol: 5,000 cells were plated into each well of 96-well Corning CellBing cell culture plates and incubated overnight at 37° C. in a humidified CO2 incubator. […] The cell culture plates were then incubated for 6 more days. H3K27me3 AlphaLISA assay was performed on the cell culture samples by using AlphaLISAR® H3K27me3 Cellular Detection Kit (PerkinElmer) and 96-well white half-area plates (PerkinElmer).

Pfeiffer cells = experiment: CTG cell viability assay (CellTiter-Glo); format: cell-based; conditions: Homo sapiens, 240 h
Protocol: 1,000 cells were plated into each well of 96-well Corning CellBing cell culture plates and incubated overnight at 37° C. in a humidified CO2 incubator. […] The cell culture plates were then incubated for 10 more days. CTG cell viability assay was performed on the cell culture samples by using CellTiter-Glo® Luminescent Cell Viability Assay Kit (Promega).

EED = EED (Homo sapiens, UniProt O75530); experiment: EED TR-FRET Binding Assay (modified LanthaScreen competition assay)
Chain of EED (O75530 whole entry): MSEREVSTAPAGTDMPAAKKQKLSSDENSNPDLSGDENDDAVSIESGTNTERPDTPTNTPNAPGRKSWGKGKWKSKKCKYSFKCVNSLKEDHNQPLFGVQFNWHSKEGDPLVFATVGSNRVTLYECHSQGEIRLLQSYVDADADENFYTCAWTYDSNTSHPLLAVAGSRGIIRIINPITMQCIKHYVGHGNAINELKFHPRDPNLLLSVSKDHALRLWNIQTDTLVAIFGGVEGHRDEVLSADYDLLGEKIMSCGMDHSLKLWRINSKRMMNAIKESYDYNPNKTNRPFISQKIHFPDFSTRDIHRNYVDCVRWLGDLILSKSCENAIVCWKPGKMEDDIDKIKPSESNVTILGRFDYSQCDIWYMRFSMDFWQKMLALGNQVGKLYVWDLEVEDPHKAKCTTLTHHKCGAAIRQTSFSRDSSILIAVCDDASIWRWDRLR
How it was run: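 Competition binding in a modified LanthaScreen format, in 20 mM Tris-HCl pH 7.5, 200 mM NaCl, 0.01% Tween-20, 10 uM DTT and 0.05% BSA. Reactions ran 1 hour at 25° C before TR-FRET detection.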

[2] = Pfeiffer, read-out: Cell Proliferation IC50 (uM)
[3] = Pfeiffer cells, 10 days with compound, CellTiter-Glo, read-out: Cell Proliferation IC50

Row | SMILES | IC50 (H3K27me3 in G401 cells) | IC50 [1] | IC50 (Pfeiffer cells; [2]) | IC50 (Pfeiffer cells; [3]) | IC50 (EED) | IC50 (EED; read-out: TR-FRET Binding)
1 | CN(C)[C@H]1CN(C2CCc3cccc(F)c32)C[C@@H]1c1ccc(N2CCN(S(C)(=O)=O)CC2)cc1 (mixture of isomers) [Example 1, (3R,4S)-1-(7-fluoro-2,3-dihydro-1H-inden-1-yl)-4-{4-[4-(methanesulfonyl)piperazin-1-yl]phenyl}-N,N-dimethylpyrrolidin-3-amine] | 0.0555 µM | 0.0621 µM | 0.0725 µM |  |  | 
2 | CN(C)[C@H]1CN(C2CCc3cccc(F)c32)C[C@@H]1c1cn(C)c2cc(C(=O)N3CC[C@@H](O)C3)ccc12 (mixture of isomers) [Example 112, rac-{3-[(3S,4R)-4-(dimethylamino)-1-(7-fluoro-2,3-dihydro-1H-inden-1-yl)pyrrolidin-3-yl]-1-methyl-1H-indol-6-yl}[(3R)-3-hydroxypyrrolidin-1-yl]methanone] | 0.0702 µM | 0.446 µM |  | 0.133 µM | 0.0012 µM | 
3 | CN(C)[C@H]1CN(C2CCc3cccc(F)c32)C[C@@H]1c1cn(C)c2c(C(=O)N3C[C@H](O)[C@@H](O)C3)cccc12 (mixture of isomers) [Example 113, rac-[(3S,4S)-3,4-dihydroxypyrrolidin-1-yl]{3-[(3S,4R)-4-(dimethylamino)-1-(7-fluoro-2,3-dihydro-1H-inden-1-yl)pyrrolidin-3-yl]-1-methyl-1H-indol-7-yl}methanone] | 0.799 µM | 3.28 µM |  | 0.399 µM | 0.000679 µM | 
4 | CN(C)[C@H]1CN(C2CCc3cccc(F)c32)C[C@@H]1c1ccc(N2CCN(S(C)(=O)=O)CC2)cc1 (mixture of isomers) [Example 2, rac-(3R,4S)-1-(7-fluoro-2,3-dihydro-1H-inden-1-yl)-4-{4-[4-(methanesulfonyl)piperazin-1-yl]phenyl}-N,N-dimethylpyrrolidin-3-amine] | 0.0992 µM | 0.14 µM | 0.126 µM |  |  | 
5 | CN(C)[C@@H]1CN(C2CCc3cccc(F)c32)C[C@H]1c1ccc(Br)cc1 (mixture of isomers) [Example 6, rac-(3S,4R)-4-(4-bromophenyl)-1-(7-fluoro-2,3-dihydro-1H-inden-1-yl)-N,N-dimethylpyrrolidin-3-amine] | 0.244 µM | 1.76 µM |  | 3.3 µM | 0.00477 µM | 
6 | CN(C)[C@@H]1CN(C2CCc3cccc(F)c32)C[C@H]1c1ccc(Cl)cc1 (mixture of isomers) [Example 7, rac-(3S,4R)-4-(4-chlorophenyl)-1-(7-fluoro-2,3-dihydro-1H-inden-1-yl)-N,N-dimethylpyrrolidin-3-amine] | 3.19 µM | 3.12 µM |  | 2.34 µM | 0.00608 µM | 
7 | CN(C)[C@@H]1CN([C@@H]2CCc3cccc(F)c32)C[C@H]1c1ccc(C#N)cc1 (racemic) [Example 19, rac-4-{(3R,4S)-4-(dimethylamino)-1-[(1R)-7-fluoro-2,3-dihydro-1H-inden-1-yl]pyrrolidin-3-yl}benzonitrile] | 0.725 µM | 0.597 µM |  | 0.654 µM | 0.0125 µM | 
8 | COC(=O)c1ccc([C@@H]2CN(C3CCc4cccc(F)c43)C[C@H]2N(C)C)cc1 (mixture of isomers) [Example 22, rac-methyl 4-[(3R,4S)-4-(dimethylamino)-1-(7-fluoro-2,3-dihydro-1H-inden-1-yl)pyrrolidin-3-yl]benzoate] | 0.449 µM | 0.944 µM |  | 0.422 µM | 0.00285 µM | 
9 | COc1ccc([C@@H]2CN(C3CCc4cccc(F)c43)C[C@H]2N(C)C)cc1OC (mixture of isomers) [Example 23, rac-(3S,4R)-4-(3,4-dimethoxyphenyl)-1-(7-fluoro-2,3-dihydro-1H-inden-1-yl)-N,N-dimethylpyrrolidin-3-amine] | 0.198 µM | 0.393 µM |  | 0.921 µM | 0.00272 µM | 
10 | CCS(=O)(=O)N1CCN(c2ccc([C@H]3CN(C4CCc5cccc(F)c54)C[C@@H]3N(C)C)cc2)CC1 (mixture of isomers) [Example 49, rac-(3R,4S)-4-{4-[4-(ethanesulfonyl)piperazin-1-yl]phenyl}-1-(7-fluoro-2,3-dihydro-1H-inden-1-yl)-N,N-dimethylpyrrolidin-3-amine] | 0.182 µM | 0.2 µM |  | 0.194 µM | 0.000739 µM | 
11 | CN(C)C(=O)N1CCN(c2ccc([C@H]3CN(C4CCc5cccc(F)c54)C[C@@H]3N(C)C)cc2)CC1 (mixture of isomers) [Example 63, rac-4-{4-[(3S,4R)-4-(dimethylamino)-1-(7-fluoro-2,3-dihydro-1H-inden-1-yl)pyrrolidin-3-yl]phenyl}-N,N-dimethylpiperazine-1-carboxamide] | 0.0556 µM | 0.191 µM |  | 0.0727 µM | 0.00147 µM | 
12 | CN(C)[C@@H]1CN(C2CCc3cccc(F)c32)C[C@H]1c1ccc2c(c1)OCO2 (mixture of isomers) [Example 65, rac-(3S,4R)-4-(2H-1,3-benzodioxol-5-yl)-1-(7-fluoro-2,3-dihydro-1H-inden-1-yl)-N,N-dimethylpyrrolidin-3-amine] | 0.576 µM | 0.306 µM |  | 0.948 µM | 0.00175 µM | 
13 | CN(C)[C@H]1CN(C2CCc3cccc(F)c32)C[C@@H]1c1ccc(-c2cnn(C)c2)cc1 (mixture of isomers) [Example 70, rac-(3R,4S)-1-(7-fluoro-2,3-dihydro-1H-inden-1-yl)-N,N-dimethyl-4-[4-(1-methyl-1H-pyrazol-4-yl)phenyl]pyrrolidin-3-amine] | 0.129 µM | 0.248 µM |  | 0.266 µM | 0.000853 µM | 
14 | CN(C)[C@H]1CN(C2CCc3cccc(F)c32)C[C@@H]1c1ccc(-c2cnn(CC(N)=O)c2)cc1 (mixture of isomers) [Example 71, rac-2-(4-{4-[(3S,4R)-4-(dimethylamino)-1-(7-fluoro-2,3-dihydro-1H-inden-1-yl)pyrrolidin-3-yl]phenyl}-1H-pyrazol-1-yl)acetamide] | 0.0521 µM | 0.155 µM |  | 0.108 µM | 0.00113 µM | 
15 | CNC(=O)Cn1cc(-c2ccc([C@H]3CN(C4CCc5cccc(F)c54)C[C@@H]3N(C)C)cc2)cn1 (mixture of isomers) [Example 72, rac-2-(4-{4-[(3S,4R)-4-(dimethylamino)-1-(7-fluoro-2,3-dihydro-1H-inden-1-yl)pyrrolidin-3-yl]phenyl}-1H-pyrazol-1-yl)-N-methylacetamide] | 0.0399 µM | 0.132 µM |  | 0.121 µM | 0.000923 µM | 
16 | CN(C)[C@H]1CN(C2CCc3cccc(F)c32)C[C@@H]1C1CCN(c2cnc(C(N)=O)cn2)CC1 (mixture of isomers) [Example 163, rac-5-{4-[(3S,4R)-4-(dimethylamino)-1-(7-fluoro-2,3-dihydro-1H-inden-1-yl)pyrrolidin-3-yl]piperidin-1-yl}pyrazine-2-carboxamide] |  | 0.583 µM |  | 0.271 µM | 0.000638 µM | 
17 | CN(C)[C@H]1CN([C@H]2CCc3cccc(F)c32)C[C@@H]1c1ccc(S(C)(=O)=O)cc1 [Example 11, (3R,4S)-1-[(1S)-7-fluoro-2,3-dihydro-1H-inden-1-yl]-4-[4-(methanesulfonyl)phenyl]-N,N-dimethylpyrrolidin-3-amine] |  | 0.171 µM |  | 0.301 µM | 0.0231 µM | 
18 | CC(=O)N1CCN(c2ccc([C@H]3CN(C4CCc5cccc(F)c54)C[C@@H]3N(C)C)cc2)CC1 (stereo partly drawn) [Example 43, 1-(4-{4-[(3S,4R)-4-(dimethylamino)-1-(7-fluoro-2,3-dihydro-1H-inden-1-yl)pyrrolidin-3-yl]phenyl}piperazin-1-yl)ethan-1-one] | 0.0326 µM | 0.0504 µM |  |  | 0.000297 µM | 
19 | CN(C)[C@H]1CN([C@H]2CCc3cccc(F)c32)C[C@@H]1c1cn(C)c2ccccc12 [Example 77, (3R,4S)-1-[(1S)-7-fluoro-2,3-dihydro-1H-inden-1-yl]-N,N-dimethyl-4-(1-methyl-1H-indol-3-yl)pyrrolidin-3-amine] |  | 0.655 µM | 1.07 µM |  |  | 0.00103 µM
20 | CN(C)[C@H]1CN(C2CCc3ccccc32)C[C@@H]1c1cn(C)c2ccccc12 (stereo partly drawn) [Example 88, (3R,4S)-1-(2,3-dihydro-1H-inden-1-yl)-N,N-dimethyl-4-(1-methyl-1H-indol-3-yl)pyrrolidin-3-amine] |  | 2.44 µM | 3.55 µM |  | 0.0262 µM | 
21 | CN(C)[C@H]1CN(C2CCc3cccc(Cl)c32)C[C@@H]1c1cn(C)c2ccccc12 (stereo partly drawn) [Example 89, (3R,4S)-1-(7-chloro-2,3-dihydro-1H-inden-1-yl)-N,N-dimethyl-4-(1-methyl-1H-indol-3-yl)pyrrolidin-3-amine] |  | 4.35 µM |  | 6.37 µM | 0.031 µM | 
